Laboratory results from US20230165252A1, “ACTIVE COMPOUND COMBINATIONS” (Bayer Aktiengesellschaft, priority 2020, published 2023).
Where “and” joins values, the source holds several entries; their conditions need not be identical. Equal entries are not always repeated. Where two headings read alike, the source gives them in different places.

Legend:
Type in all cases: cell-based
Botrytis cinerea = experiment: in vitro-Test with Botrytis cinerea (microtiter growth inhibition)
Experimental: (§1) The degree of efficacy expressed in % is denoted: 0% means an efficacy, which corresponds to that of the control, while an efficacy of 100% means that no disease is observed.
(§2) If the actual fungicidal activity exceeds the calculated value, then the activity of the combination is super-additive, i.e. a synergistic effect exists. In this case, the efficacy, which was actually observed, must be greater than the value for the expected efficacy (E), that was calculated from the abovementioned formula.
(§3) Example: In Vitro-Test with Fungal Microorganisms
(§4) Wells of 96-well microtiter plates are filled with 10 μl of a preparation of test compound or compound combination in methanol+emulsifier alkylaryl-polyglycol-ether. Thereafter, the solvent is evaporated in a hood. At the next step, 100 μl of liquid potato dextrose medium is given into each well, that has been amended with an appropriate concentration of spores or mycelium suspension of the test fungus.
(§5) With the aid of a photometer, the extinction in all wells is measured at the wavelength of 620 nm.
(§6) The microtiter plates are incubated at 20° C. and 85% relative humidity. The inhibition of growth is determined again photometrically 3-5 days after the application. Efficacy is calculated in relation to the untreated control, 0% efficacy means fungal growth as high as in untreated control while 100% efficacy means no fungal growth is measured.

Parastagonospora nodorum = experiment: in vitro-Test with Parastagonospora nodorum (microtiter growth inhibition); conditions: compound alone
Experimental: as §1, §2, §3, §4, §5, §6

[1] = tested on: Ustilago segetum var. avenae; experiment: in vitro-Test with Ustilago segetum var. avenae (microtiter growth inhibition)
Experimental: as §1, §2, §3, §4, §5, §6

Cercospora beticola = experiment: in vitro-Test with Cercospora beticola (microtiter growth inhibition); conditions: alone
Experimental: as §1, §2, §3, §4, §5, §6

Cordana musae = experiment: in vitro-Test with Cordana musae (microtiter growth inhibition); conditions: single substance
Experimental: as §1, §2, §3, §4, §5, §6

Diaporthe citri = experiment: in vitro-Test with Diaporthe citri (microtiter growth inhibition)
Experimental: as §2, §3, §4, §5, §6

Alternaria alternate = experiment: in vitro-Test with Alternaria alternate (microtiter growth inhibition)
Experimental: as §1, §2, §3, §4, §5, §6

Fusarium culmorum = experiment: in vitro-Test with Fusarium culmorum (microtiter growth inhibition); conditions: Fusarium culmorum, read-out: Efficacy
Experimental: as §1, §2, §3, §4, §5, §6

[2] = Cercospora beticola, read-out: Efficacy %
[3] = Diaporthe citri, applied alone, read-out: Efficacy
[4] = Diaporthe citri, read-out: Efficacy

## CC(O)(Cn1cncn1)c1ccc(Oc2ccc(Cl)cc2)cc1C(F)(F)F (stereo not shown) [(1.055) mefentrifluconazole]
Botrytis cinerea; single active at 0.008 ppm
  Efficacy %: 0%
Botrytis cinerea; single active at 0.04 ppm
  Efficacy %: 9% and 0%
Botrytis cinerea; single active at 0.2 ppm
  Efficacy %: 60% and 96%
Botrytis cinerea; single active at 1.0 ppm
  Efficacy %: 100%
Parastagonospora nodorum; 0.008 ppm
  Efficacy %: 81%
Parastagonospora nodorum; 0.04 ppm
  Efficacy %: 98%
Parastagonospora nodorum; 0.2 ppm
  Efficacy %: 99%
[1]; compound alone, 0.008 ppm
  Efficacy %: 34%
[1]; compound alone, 0.04 ppm
  Efficacy %: 87%
[1]; compound alone, 0.2 ppm
  Efficacy %: 98%
[1]; compound alone, 1.0 ppm
  Efficacy %: 100%

## COc1ccnc(C(=O)N[C@H]2COC(=O)[C@H](Cc3ccccc3)[C@@H](OC(=O)C(C)C)[C@H](C)OC2=O)c1OCOC(=O)C(C)C [(3.025) fenpicoxamid]
Botrytis cinerea; single active at 0.04 ppm
  Efficacy %: 0%
Botrytis cinerea; single active at 0.2 ppm
  Efficacy %: 13%
Botrytis cinerea; single active at 1.0 ppm
  Efficacy %: 0%
Botrytis cinerea; single active at 5.0 ppm
  Efficacy %: 34%
[1]; compound alone, 0.04 ppm
  Efficacy %: 3%
[1]; compound alone, 0.2 ppm
  Efficacy %: 0%
[1]; compound alone, 1.0 ppm
  Efficacy %: 0%
[1]; compound alone, 5.0 ppm
  Efficacy %: 0%

## N#Cc1sc2c(=O)c3ccccc3c(=O)c=2sc1C#N [(5.010) dithianon]
Botrytis cinerea; single active at 20 ppm
  Efficacy %: 100%
[1]; compound alone, 0.8 ppm, read-out: Efficacy %
  inhibition of growth at 0.8 ppm: 11%
[1]; compound alone, 20 ppm, read-out: Efficacy %
  inhibition of growth at 20 ppm: 98%

## Cc1ccc(C(F)(F)CNC(=O)c2c(Oc3cccc(C4CC4)c3F)nnc(Cl)c2C)c(C)c1 [Compound 1-655]
Cercospora beticola; 0.004 ppm
  Efficacy %: 0%
Cercospora beticola; 0.020 ppm
  Efficacy %: 0%
Cercospora beticola; 0.1 ppm
  Efficacy %: 0%
Cercospora beticola; 0.5 ppm
  Efficacy %: 7%

## Fc1ccc(Oc2ccnc3cc(Cl)cc(Cl)c23)cc1 [Compound 13.005, quinoxyfen]
Cercospora beticola; [2]
  inhibition of growth at 0.08 ppm: 0%
  inhibition of growth at 10 ppm: 20%
Cercospora beticola; Cercospora beticola, 0.4 ppm, read-out: Efficacy %
  inhibition of growth at 0.4 ppm: 2%
Cordana musae; Neocordana musae, 2 ppm, read-out: Efficacy
  inhibition of growth at 2 ppm: 1%
Cordana musae; Neocordana musae, 10 ppm, read-out: Efficacy
  inhibition of growth at 10 ppm: 15%
Diaporthe citri; [3]
  inhibition of growth at 0.4 ppm: 0%
  inhibition of growth at 10 ppm: 54%

## O=C1c2ccccc2C(=O)N1SC(Cl)(Cl)Cl [folpet]
Alternaria alternate; Alternaria, alone, read-out: Efficacy %
  inhibition of growth at 0.4 ppm: 0%
Alternaria alternate; Alternaria, applied alone, 0.08 ppm, read-out: Efficacy
  inhibition of growth at 0.08 ppm: 5%
Alternaria alternate; Alternaria, applied alone, read-out: Efficacy
  inhibition of growth at 0.4 ppm: 1%
Alternaria alternate; Alternaria, applied alone, 2 ppm, read-out: Efficacy
  inhibition of growth at 2 ppm: 100%
Alternaria alternate; Alternaria, applied alone, 10 ppm, read-out: Efficacy
  inhibition of growth at 10 ppm: 100%
Cercospora beticola; [2]
  inhibition of growth at 0.08 ppm: 7%
  inhibition of growth at 10 ppm: 100%
Cercospora beticola; Cercospora beticola, 2 ppm, read-out: Efficacy %
  inhibition of growth at 2 ppm: 100%
Diaporthe citri; [4]
  inhibition of growth at 0.08 ppm: 20%
  inhibition of growth at 0.4 ppm: 33%
Diaporthe citri; Diaporthe citri, 2 ppm, read-out: Efficacy
  inhibition of growth at 2 ppm: 98%
Diaporthe citri; [3]
  inhibition of growth at 0.08 ppm: 0%
  inhibition of growth at 0.4 ppm: 53%
  inhibition of growth at 10 ppm: 99%
Fusarium culmorum; 0.4 ppm
  inhibition of growth at 0.4 ppm: 0%
Fusarium culmorum; 2 ppm
  inhibition of growth at 2 ppm: 62%
Fusarium culmorum; 10 ppm
  inhibition of growth at 10 ppm: 100%
[1]; single compound, 0.08 ppm, read-out: Efficacy %
  inhibition of growth at 0.08 ppm: 12%

## CCO[PH](=O)[O-].CCO[PH](=O)[O-].CCO[PH](=O)[O-].[Al+3] [fosetylaluminium]
Alternaria alternate; 4 ppm, alone
  Efficacy %: 8%
Alternaria alternate; 20 ppm, alone
  Efficacy %: 27%
Alternaria alternate; 100 ppm, alone
  Efficacy %: 37%
Cordana musae; 0.8 ppm
  Efficacy: 0%
Cordana musae; 4 ppm
  Efficacy: 12%
Cordana musae; 20 ppm
  Efficacy: 0%
Diaporthe citri; applied alone, 0.8 ppm
  Efficacy: 22%
Diaporthe citri; applied alone, 4 ppm
  Efficacy: 31%
Diaporthe citri; applied alone, 20 ppm
  Efficacy: 4%
Diaporthe citri; applied alone, 100 ppm
  Efficacy: 0%
